Reference: ChEMBL document CHEMBL1145263, “Redox-responsive and calcium-dependent switching of glycosyldisulfide interactions with Concanavalin A” (Bioorg Med Chem Lett, 2005)

Experiments:
[1] = Inhibitory concentration against mannan binding relative to concanavalin A; Using QCM(quartz crystal microbalance) assay; NA= Not active
[2] = (§1) Inhibitory concentration against mannan binding relative to concanavalin A; Using QCM(quartz crystal microbalance) assay
[3] = as §1; remark: listed apart in the source

| IC50 [1] | IC50 [2] [µM] | SMILES | further results |
| --- | --- | --- | --- |
| Not Active | – | CC(=O)NC1C(O)[C@@H](O)C(CO)O[C@H]1SS[C@@H]1OC(CO)[C@H](O)[C@@H](O)C1NC(C)=O (single isomer, unassigned) | – |
| – | 1100 | CO[C@H]1O[C@H](CO)[C@@H](O)[C@H](O)[C@@H]1O | – |
| Not Active | – | COC1O[C@H](CSSCC2O[C@H](OC)C(O)[C@@H](O)[C@@H]2O)C(O)[C@@H](O)[C@@H]1O (stereo partly specified) | – |
| – | 5300 | OC[C@H]1OC(O)[C@@H](O)[C@@H](O)[C@@H]1O (stereo partly drawn) [D-MANNOSE] | – |
| – | 2000 | CC(=O)NC1[C@@H](O)[C@H](O)C(CO)O[C@H]1SS[C@@H]1OC(CO)[C@@H](O)[C@@H](O)C1NC(C)=O (stereo in doubt) | – |
| – | – | OCC1O[C@H](S)C(O)[C@@H](O)[C@@H]1O (stereo partly specified) | Inhibition [3]: 10 mM |
